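How tested: cells in 96-well plates exposed to compound for 48 hours at five concentrations. GI50 = concentration required for 50% inhibition of growth.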 Activity calls are given as the source filed them. Cut-off read from the data, not from the text of the source: active = GI50 up to about 1.1 µM and inactive = higher.
Key:
Assay in all cases: NCI tumour cell line growth inhibition, 48 h
IGROV-1 = tested on: IGROV-1
Malme-3M = tested on: Malme-3M
OVCAR-5 = tested on: OVCAR-5
SK-MEL-2 = tested on: SK-MEL-2
SF-268 = tested on: SF-268
UO-31 = tested on: UO-31
HCT-116 = tested on: HCT-116
NCI-H226 = tested on: NCI-H226
COLO 205 = tested on: COLO 205
SK-MEL-5 = tested on: SK-MEL-5
SR = tested on: SR
SNB-75 = tested on: SNB-75
MOLT-4 = tested on: MOLT-4
OVCAR-3 = tested on: OVCAR-3
UACC-62 = tested on: UACC-62
RXF 393 = tested on: RXF 393
TK-10 = tested on: TK-10
DU-145 = tested on: DU-145
HT-29 = tested on: HT-29
HOP-62 = tested on: HOP-62

Measured: GI50

O=C(Nc1c(C(F)(F)F)cc(-c2ccccc2)[nH]c1=O)N1CCOCC1
inactive: IGROV-1 > 100 µM | Malme-3M > 100 µM | OVCAR-5 > 100 µM | SK-MEL-2 > 100 µM | SF-268 > 100 µM | UO-31 > 100 µM | HCT-116 > 100 µM | NCI-H226 > 100 µM | COLO 205 > 100 µM | SK-MEL-5 38.1 µM | SR 54.3 µM | SNB-75 > 100 µM | MOLT-4 > 100 µM | OVCAR-3 70.8 µM | UACC-62 > 100 µM | RXF 393 > 100 µM | TK-10 > 100 µM | DU-145 > 100 µM | HT-29 > 100 µM | HOP-62 > 100 µM

CN1CCC(OC(=O)Oc2ccccc2)(c2ccccc2)CC1
inactive: IGROV-1 21.1 µM | Malme-3M 17.7 µM | OVCAR-5 25.4 µM | SK-MEL-2 17.9 µM | SF-268 37.1 µM | UO-31 19.6 µM | HCT-116 13 µM | NCI-H226 22.7 µM | COLO 205 12.5 µM | SK-MEL-5 20 µM | SR 15.9 µM | SNB-75 24.4 µM | MOLT-4 13.1 µM | OVCAR-3 61.5 µM | UACC-62 21.5 µM | RXF 393 37.3 µM | TK-10 19.1 µM | DU-145 47.1 µM | HT-29 4.51 µM | HOP-62 15.5 µM

CC(C)(C)OC(=O)NC1CC=CCC1NC(=O)OC(C)(C)C (stereo not given)
inactive: IGROV-1 > 100 µM | Malme-3M > 100 µM | OVCAR-5 > 100 µM | SK-MEL-2 > 100 µM | SF-268 > 100 µM | UO-31 > 100 µM | HCT-116 > 100 µM | NCI-H226 > 100 µM | COLO 205 > 100 µM | SK-MEL-5 97.7 µM | SR > 100 µM | SNB-75 > 100 µM | MOLT-4 > 100 µM | OVCAR-3 > 100 µM | UACC-62 > 100 µM | RXF 393 95.5 µM | TK-10 > 100 µM | DU-145 > 100 µM | HT-29 > 100 µM | HOP-62 > 100 µM

N=C(N)NS(=O)(=O)c1ccc(Nc2c3ccccc3nc3ccc(C(=O)Nc4ccc(S(N)(=O)=O)cc4)cc23)cc1
inactive: IGROV-1 > 100 µM | Malme-3M > 100 µM | OVCAR-5 > 100 µM | SK-MEL-2 > 100 µM | SF-268 > 100 µM | UO-31 > 100 µM | HCT-116 > 100 µM | NCI-H226 > 100 µM | COLO 205 > 100 µM | SK-MEL-5 > 100 µM | SR > 100 µM | SNB-75 > 100 µM | MOLT-4 > 100 µM | OVCAR-3 > 100 µM | UACC-62 > 100 µM | RXF 393 > 100 µM | TK-10 > 100 µM | DU-145 > 100 µM | HT-29 > 100 µM | HOP-62 > 100 µM

N=C(N)c1ccc(/N=N\c2c(O)ccc3c2[nH]c2ccccc23)cc1
inactive: IGROV-1 49.8 µM | Malme-3M > 47.3 µM | OVCAR-5 41.5 µM | SK-MEL-2 20.3 µM | SF-268 19.5 µM | UO-31 35.3 µM | HCT-116 3.31 µM | NCI-H226 40.5 µM | COLO 205 21.7 µM | SK-MEL-5 37.8 µM | SR 2.54 µM | SNB-75 8.38 µM | MOLT-4 2.23 µM | OVCAR-3 2.1 µM | UACC-62 54.2 µM | RXF 393 53.1 µM | TK-10 45.5 µM | DU-145 34.6 µM | HT-29 19.6 µM | HOP-62 13.6 µM
